{"source": "patent US20140221490A1", "about": "“METHODS OF TREATING PAIN” (Hospira, Inc., priority 2011, published 2014)", "system": "acute moderate to severe pain after abdominal or pelvic surgery", "test": "Multiple-dose randomized double-blind active- and placebo-controlled trial after abdominal or pelvic surgery: efficacy (SPID, pain relief, rescue morphine, patient global evaluation)", "type": "in vivo, human", "protocol": "A 331 multicenter, multiple-dose, multiple-day, randomized, double-blind, parallel-group study was conducted on patients who had undergone abdominal or pelvic surgery. Patients were randomly assigned to 18.75 mg of diclofenac, 37.5 mg of diclofenac, 30 mg ketorolac, or placebo (1:1:1:1 ratio). The diclofenac formulation was Dyloject™. The patients selected for the study had moderate to severe pain within 6 hours postoperatively, defined as pain intensity of at least 50 mm on a 0-100 VAS.\nAt 16 U.S. sites, adults 18-65 years old were screened if they were scheduled for abdominal or pelvic surgery within 2 weeks. Key inclusion criteria were moderate-to-severe postoperative pain, defined as intensity≧50 mm on a 0-100 mm visual analog scale (VAS) within 6 hours after surgery, and weight>50 kg. Exclusion criteria were applied to the preoperative, intraoperative, and postoperative periods. Key preoperative exclusion criteria were a history of chronic disease or severe asthma, a recent (≦6 months) cardiovascular event or clinically-significant abnormal electrocardiogram (ECG) at screening, consumption of aspirin (except <325 mg/day for antiplatelet cardiac protection), opioids, other NSAIDs, other common analgesics, major and minor tranquilizers, or antihistamines≦24 hours before study drug initiation (except if administered during surgery), consumption of a monoamine oxidase inhibitor, tryptophan, carbamazepine, or valproate≦2 weeks before baseline, any clinically-significant laboratory abnormality, and previous or present peptic ulceration, gastrointestinal (GI) bleeding, or any bleeding diathesis. In addition, long-acting NSAIDs or COX-2 inhibitors were to be discontinued 3 days before surgery. Subjects were also excluded in the event of a known allergy to diclofenac, NSAIDs, morphine, anesthetics, or any excipient of the study preparation, receipt of any other investigational medication within 3 months prior to administration of the study drug, known or suspected alcohol or drug abuse, and unwillingness to remain in the clinical research center for 2 nights or return within 5-9 days for a safety follow-up visit. Female subjects with a positive pregnancy test within 24 hours of surgery or who were lactating at screening were also excluded. Intraoperative exclusion criteria were subcostal incision during surgery and concomitant use of NSAIDs or acetaminophen (other intraoperative medications were not restricted). Subjects with abnormal postoperative baseline ECG were excluded from study participation. In addition, patient-controlled analgesia (PCA) was not permitted before or during study drug dosing. Nitrous oxide and very short-acting barbiturates or benzodiazepines were allowed, provided that there was a ≧1.5-hour washout period before study drug administration, to avoid residual effects on pain intensity assessments. […] Postoperative regional anesthesia was not allowed.\nThis was a multicenter, multiple-dose, multiple-day, randomized, double-blind, active- and placebo-controlled, parallel-group phase 3 study. […] Assignments were made according to a computer-generated random-number code, and clinical staff and patients were blinded to study drug assignment. The first dose of study medication (1 mL IV bolus) was received by patients in all treatment arms within this first 6-hour period (Table 4).\nAdministration of the first dose of study drug was taken as time 0, and all subsequent dosing and evaluation time points were in relation to time of first study drug dose. Subsequent injections were received every 6 hours until discharge or until patient withdrawal/discontinuation from the study, due either to an adverse event (AE), inadequate pain control, noncompliance with the study protocol, or at the investigator's discretion. […]"}
{"compound": "O=C(c1ccccc1)c1ccc2n1CCC2C(=O)O", "note": "(stereo not shown) [Ketorolac, ketorolac tromethamine]", "values": [{"measurement": "Cumulative Amount of Rescue Medication, Mean (SD)", "setting": "0 to 24 hours, 30 mg (N = 82)", "result": "6.7 (7.74) mg"}, {"measurement": "Opioid sparing vs. placebo", "setting": "0 to 24 hours, 30 mg (N = 82)", "result": 40, "unit": "%"}, {"measurement": "Cumulative Amount of Rescue Medication, Mean (SD)", "setting": "0 to 48 hours, 30 mg (N = 82)", "result": "8.5 (10.00) mg"}, {"measurement": "Opioid sparing vs. placebo", "setting": "0 to 48 hours, 30 mg (N = 82)", "result": 46, "unit": "%"}, {"measurement": "Cumulative Amount of Rescue Medication, Mean (SD)", "setting": "0 to 72 hours, 30 mg (N = 82)", "result": "8.5 (10.04) mg"}, {"measurement": "Opioid sparing vs. placebo", "setting": "0 to 72 hours, 30 mg (N = 82)", "result": 47, "unit": "%"}, {"measurement": "Cumulative Amount of Rescue Medication, Mean (SD)", "setting": "0 to 72 hours, 30 mg (N = 82), listed as ketorolac", "result": 8.5, "unit": "mg"}, {"measurement": "Sum of the Pain Intensity Differences Over 0-48 Hours, Mean", "setting": "30 mg (N = 82)", "result": 1583.2, "unit": "mm·hours"}, {"measurement": "patients with at least a 30% reduction in pain intensity", "setting": "at 45 minutes after study drug initiation, 30 mg", "result": 57, "unit": "%"}, {"measurement": "patients with ≧30% reduction in pain intensity", "setting": "during the first 6-hour dosing period, 30 mg", "result": 76.8, "unit": "%"}]}
